Molecules are shown by their SMILES. In brackets after ≈: the same amount, converted by molar mass.

One data set relates to HEK293. Put plainly: Cytotoxicity against human HEK293 cells assessed as reduction in cell proliferation incubated for 24 hrs by MTT assay. The format is functional, cell-based. As to conditions: HEK293, 24 h.
The nature of data set [1]: Cytotoxicity against Trichoplusia ni BTI-TN-5B1-4 cells assessed as reduction cell proliferation incubated for 24 hrs by MTT assay. It counts as toxicity, cell-based.
Another data set relates to HepG2. The data set is described as follows: Cytotoxicity against human HepG2 cells assessed as reduction cell proliferation incubated for 24 hrs by MTT assay. The format is functional, cell-based. As to conditions: HepG2, 24 h.
The subject of data set [2] is HT-29. The data set is described as follows: Inhibition of colony formation of human HT-29 cells incubated for 7 days in absence of glucose by crystal violet staining based analysis. The format is functional, cell-based. As to conditions: HT-29, 168 h.
For data set [3], the system named is HT-29. Put plainly: Inhibition of colony formation of human HT-29 cells assessed as reduction in colonies incubated for 7 days by crystal violet staining based analysis. It counts as functional, cell-based. As to conditions: HT-29, 168 h.
Data set [4] can be described thus: Antiproliferative activity against mouse TA3/Ha cells assessed as reduction in cell growth. The format is functional, cell-based.
The target in data set [5] is T1, Receptor tyrosine-protein kinase erbB-2 (Homo sapiens, UniProt P04626). The data set is described as follows: Inhibition of ERBB2 (unknown origin) in human NCI-H1975 cells assessed as increase in mitochondrial ROS level incubated for 48 hrs by Western blot analysis.
The target in data set [6] is T1, Receptor tyrosine-protein kinase erbB-2. Put plainly: Inhibition of ERBB2 (unknown origin).
The subject of the next data set is MCF7. Put plainly: Antiproliferative activity against human MCF7 cells assessed as reduction in cell viability incubated for 72 hrs by MTT assay. As to conditions: MCF7, 72 h. The format is functional, cell-based.
Data set [7] concerns NSCLC. The data set is described as follows: Antitumor activity against human NSCLC cells xenografted in orthotopic lung tumor mouse model assessed as reduction in tumor growth incubated for 8 weeks. The format is functional. As to conditions: 1344 h.
Data set [8] deals with NSCLC. Put plainly: Antiproliferative activity against human NSCLC cells assessed as reduction in cell viability incubated for 72 hrs by MTT assay. The format is functional, cell-based.
The subject of a further data set is HL-60. The data set is described as follows: Antiproliferative activity against human HL-60 cells assessed as cell growth inhibition incubated for 72 hrs by MTT assay. As to conditions: HL-60, 72 h. The format is functional, cell-based.
Another data set has as its system THP-1. The data set is described as follows: Antiproliferative activity against human THP-1 cells assessed as cell growth inhibition incubated for 72 hrs by MTT assay. It counts as functional, cell-based. As to conditions: THP-1, 72 h.
A further data set relates to KG-1. Put plainly: Antiproliferative activity against human KG-1 cells assessed as cell growth inhibition incubated for 72 hrs by MTT assay. It counts as functional, cell-based. As to conditions: KG-1, 72 h.
Data set [9] relates to HCT-116. Put plainly: Inhibition of mitochondrial respiration in human HCT-116 cells assessed as oxygen consumption rate incubated for 1 hr by Seahorse XF24 extracellular flux analyzer. It counts as functional, cell-based. As to conditions: HCT-116, 1 h.
The test system of data set [10] is MDA-MB-231. The data set is described as follows: Inhibition of mitochondrial respiration in human MDA-MB-231 cells assessed as oxygen consumption rate incubated for 1 hr by Seahorse XF24 extracellular flux analyzer. The format is functional, cell-based. As to conditions: MDA-MB-231, 1 h.
The test system of data set [11] is 4T1. Put plainly: Antitumor activity against mouse 4T1 cells xenografted in BALB/c mouse model assessed as peak tumor level at 100 mg/kg, ip measured after 4 hrs. The format is functional.
In the next data set the test system is A-375. The data set is described as follows: Antiproliferative activity against human A-375 cells assessed as inhibition of cell growth measured after 72 hrs by CCK8 assay. It counts as functional, cell-based. As to conditions: A-375, 72 h.
The nature of data set [12]: Half life in tumor of BALB/c mouse model xenografted with 4T1 cells at 100 mg/kg, ip measured after 4 hrs. The format is ADME, organism-based.
Data set [13] is described as follows: Half life in BALB/c mouse plasma at 100 mg/kg, ip. The format is ADME, organism-based.
Data set [14] concerns 4T1. The data set is described as follows: Antitumor activity against mouse 4T1 cells xenografted in BALB/c mouse model assessed as peak plasma level at 100 mg/kg, ip. The format is functional.
A further data set relates to NCI-H1693. The data set is described as follows: Antiproliferative activity against human NCI-H1693 assessed as reduction in cell growth incubated for 72 hrs by Cell-titer glo assay. As to conditions: NCI-H1693, 72 h. The format is functional, cell-based.
For another data set, the system named is NCI-H1581. The data set is described as follows: Antiproliferative activity against human NCI-H1581 cells assessed as reduction in cell growth incubated for 72 hrs by Cell-titer glo assay. The format is functional, cell-based. As to conditions: NCI-H1581, 72 h.
The subject of a further data set is NCI-H157. The data set is described as follows: Antiproliferative activity against human NCI-H157 assessed as reduction in cell growth incubated for 72 hrs by Cell-titer glo assay. It counts as functional, cell-based. As to conditions: NCI-H157, 72 h.
Data set [15] is described as follows: Antiproliferative activity against human DFCI024 cells assessed as reduction in cell growth incubated for 72 hrs by Cell-titer glo assay. It counts as functional, cell-based. As to conditions: DFCI024, 72 h.
Data set [16] in a line: Oral bioavailability in human. It counts as ADME, organism-based. As to conditions: in vivo.
For a further data set, the system named is NCI-H460. The data set is described as follows: Antiproliferative activity against human NCI-H460 cells assessed as reduction in cell viability incubated for 48 hrs by cell titer glow assay. The format is functional, cell-based. As to conditions: NCI-H460, 48 h.
The test system of the next data set is Melanoma cell line. The data set is described as follows: Antiproliferative activity against human melanoma cells assessed as reduction in cell viability incubated for 72 hrs by CellTiter-Fluor reagent based fluorescence analysis. The format is functional.
Data set [17] is described as follows: Inhibition of mitochondrial respiration in Sprague-Dawley rat liver. The format is functional, tissue-based.
In a further data set the test system is L1210. The data set is described as follows: Antitumor activity against mouse L1210 cells xenografted in […] model assessed as prolongation of life span relative to control. It counts as functional.
Data set [18] relates to MDA-MB-231. Put plainly: Antiproliferative activity against human MDA-MB-231 cells assessed as reduction in cell viability incubated for 72 hrs by cell-titer glo assay. As to conditions: MDA-MB-231, 72 h. It counts as functional, cell-based.
Data set [19] in a line: Inhibition of NADH-ubiquinone oxidoreductase (unknown origin) binding to ETC complex 1. The arrangement: species or system Homo sapiens.
The subject of a further data set is MDA-MB-435. Put plainly: Antiproliferative activity against human MDA-MB-435 cells assessed as reduction in cell viability incubated for 72 hrs by cell-titer glo assay. It counts as functional, cell-based. As to conditions: MDA-MB-435, 72 h.
The nature of data set [20]: Antiproliferative activity against mouse L929 cells assessed as inhibition of cell growth incubated for 5 days by MTT assay. It counts as toxicity, cell-based.
Data set [21] deals with HCT-116. The data set is described as follows: Antiproliferative activity against human HCT-116 cells assessed as reduction in cell viability. The format is functional, cell-based.

T1 sequence (P04626 whole entry): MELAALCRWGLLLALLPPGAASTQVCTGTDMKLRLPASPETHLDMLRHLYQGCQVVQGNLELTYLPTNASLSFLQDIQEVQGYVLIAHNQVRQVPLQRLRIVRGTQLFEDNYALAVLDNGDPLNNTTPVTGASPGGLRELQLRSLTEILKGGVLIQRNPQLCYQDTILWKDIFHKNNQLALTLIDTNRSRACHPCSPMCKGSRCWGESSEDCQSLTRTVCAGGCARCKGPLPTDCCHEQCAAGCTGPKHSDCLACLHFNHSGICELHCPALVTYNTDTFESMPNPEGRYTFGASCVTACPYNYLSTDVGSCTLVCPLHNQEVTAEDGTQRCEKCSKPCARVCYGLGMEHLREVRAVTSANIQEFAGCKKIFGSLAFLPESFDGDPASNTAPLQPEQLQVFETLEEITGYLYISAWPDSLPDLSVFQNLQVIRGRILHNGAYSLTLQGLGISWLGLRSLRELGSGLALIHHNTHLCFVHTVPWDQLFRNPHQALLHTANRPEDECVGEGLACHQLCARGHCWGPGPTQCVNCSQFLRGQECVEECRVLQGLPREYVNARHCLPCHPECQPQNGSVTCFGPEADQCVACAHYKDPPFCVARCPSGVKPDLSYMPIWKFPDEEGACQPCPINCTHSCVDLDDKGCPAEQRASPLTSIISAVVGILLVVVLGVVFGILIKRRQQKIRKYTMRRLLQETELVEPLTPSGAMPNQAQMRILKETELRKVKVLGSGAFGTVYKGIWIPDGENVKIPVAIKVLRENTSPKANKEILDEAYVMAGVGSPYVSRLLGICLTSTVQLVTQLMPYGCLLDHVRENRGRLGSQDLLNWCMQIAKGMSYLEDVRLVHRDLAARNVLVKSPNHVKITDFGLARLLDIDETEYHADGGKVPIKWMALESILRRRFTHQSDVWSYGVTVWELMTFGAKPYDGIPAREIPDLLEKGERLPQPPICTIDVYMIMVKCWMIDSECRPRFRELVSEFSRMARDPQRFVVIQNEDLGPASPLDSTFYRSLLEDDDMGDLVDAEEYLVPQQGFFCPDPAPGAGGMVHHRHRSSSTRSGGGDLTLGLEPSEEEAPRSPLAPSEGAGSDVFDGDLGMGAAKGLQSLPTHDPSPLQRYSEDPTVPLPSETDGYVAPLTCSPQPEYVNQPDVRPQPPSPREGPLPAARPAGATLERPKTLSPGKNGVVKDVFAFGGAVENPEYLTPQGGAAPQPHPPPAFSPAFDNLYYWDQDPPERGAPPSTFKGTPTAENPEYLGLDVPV

`C/C=C(\C)[C@H](O)[C@H](C)/C=C(C)/C=C/C/C(C)=C/Cc1nc(OC)c(OC)c(O)c1C` [PIERICIDIN A]: the IC50 was determined as 229 µM in the data set with HEK293, 234 µM with HepG2, 7.7 nM in the data set with HT-29 [2] and 6.4 nM in the data set on HT-29 [3]. The IC50 at 24 h in data set [1] was determined as 61 nM.
`CC1(C)C=CC(=O)c2c(O)c3c(c(O)c21)CC=CC3`: the IC50 in [4] amounted to 13 µM.
On to `FC(F)(F)c1ccc(/C=C/c2nc(COc3ccc(CCCCn4ccnn4)cc3)co2)cc1` [MUBRITINIB], for which the IC50 in [5] was determined as 80 nM; in data set [6] it was 51 nM.
Consider `CCCCCC[C@H](O)CCC[C@H](O)[C@H]1CC[C@H]([C@H]2CC[C@H]([C@H](O)CCCCCCCCCCCCC3=C[C@H](C)OC3=O)O2)O1` [SQUAMOCIN], for which the IC50 in the data set with MCF7 was 0.8 ng/mL (≈ 1.28 nM).
Consider `O=C(NCCCCCCCCCC[P+](c1ccccc1)(c1ccccc1)c1ccccc1)c1nn(Cc2ccc(Cl)cc2Cl)c2ccccc12`, for which, in the data set on NSCLC [7], the ED50 amounted to 7.5 µmol/kg. Besides, the IC50 with NSCLC [8] worked out at 740 nM.
Regarding `Cc1nc(-c2nc(-c3ccc(OC(F)(F)F)cc3)no2)nn1Cc1cccc(N2CCC(S(C)(=O)=O)CC2)c1`, the EC50 with HL-60, in the data set on THP-1 and in the data set with KG-1 was 3 nM throughout.
`O[C@@H](CNC[C@H](O)[C@H]1CCc2cc(F)ccc2O1)[C@@H]1CCc2cc(F)ccc2O1`: the IC50 with HCT-116 [9] was 900 nM; with MDA-MB-231 [10] it was 2100 nM.
As to `CCCCc1ccc(N)c(C)c1`, the Activity was determined as 11 µM with 4T1 [11] and 25 µM in the data set on 4T1 [14]. The IC50 with A-375 stood at 100 µM. Moreover, the half-life was determined as 72 min in [12] and 66 min in [13].
As to `CCCCCn1c(=O)[nH]c2cc(C(=O)N3CCN(c4ccc([N+](=O)[O-])cc4)CC3)ccc2c1=O`, the IC50 (in the data set on NCI-H1693; with NCI-H1581; in the data set on NCI-H157; in data set [15]) was 200 nM throughout.
In the case of `N=C(NC(=N)N1CCCC1)Nc1ccc(OC(F)(F)F)cc1` [LIXUMISTAT], the bioavailability in data set [16] amounted to 72.9%.
For `Cc1cc(-c2nc(-c3ccc(OC(F)(F)F)cc3)no2)nn1Cc1ccnc(N2CCN(C3CC3)CC2)c1`, in the data set on NCI-H460, the EC50 amounted to 3 nM. Besides, the IC50 in the data set with Melanoma cell line turned out to be 2 nM.
With `CCCCCCCCCC[C@H](O)[C@H]1CC[C@H]([C@H]2CC[C@H]([C@H](O)CCCCCCCCCC[C@@H](O)CC3=C[C@H](C)OC3=O)O2)O1` [REL-SQUAMOCIN-G], the IC50 in data set [17] was 9.5 nM. The Activity in the data set on L1210 is given as 38%.
Take `Cc1ccc(Sc2cccc3[nH]c4nc(N)nc(N)c4c23)cc1`: the IC50 with MDA-MB-231 [18] amounted to 6.9 µM; in the data set on MDA-MB-435, 11.9 µM. In [19], this compound had a Ki of 840 nM.
On to `C=C(C)[C@H]1Cc2c(ccc3c2O[C@@H]2COc4cc(OC)c(OC)cc4[C@@H]2C3=O)O1` [ROTENONE], for which the IC50 in [17] was determined as 19.3 nM. In addition, the IC50 at 5 days in data set [20] amounted to 16.1 nM.
Turning to `Cc1cc(OCc2nnc(SC3CCCC3)n2-c2cccnc2)ccc1-c1ccc(S(C)(=O)=O)cc1`, the IC50 in the data set on HCT-116 [21] turned out to be 450 nM. In addition, the IC50 at 5 days in [20] was 1.3 nM.

The values above are taken from ChEMBL document CHEMBL5346908, “Recent advances of mitochondrial complex I inhibitors for cancer therapy: Current status and future perspectives” (Eur J Med Chem, 2023).
